Reference: patent US9951077B2, “Aminopyridazinone compounds as protein kinase inhibitors” (ETERNITY BIOSCIENCE INC., priority 2014, dated 2018)

Target: Btk (Homo sapiens (Human), UniProt Q06187)
Assay: Btk kinase assay (ADP-Glo)
Assay type: biochemical
Settings: ATP 1.2 μM, 60 minutes, room temperature; read-out: BTK enzyme IC50
Protocol: The Btk kinase assay was performed using a ADP-Glo Btk kinase assay kit purchased from Promega (Madison, Wis.). The assay was conducted according to the protocols provided in the assay kit. In brief, the enzyme reaction was carried out in the kinase reaction buffer containing Btk (2 ng/μl), ATP (1.2 μM), poly GT peptide (0.3 μM), DTT (40 nM), MnCl2 (1.4 mM), and 1×kinase buffer (included in the kit) in the presence or absence of the tested articles at various concentrations in 384-well plate at room temperature (22±1° C.) for 60 minutes. The final reaction volume for each reaction was 10 μl. Then, 4 μl of ADP-Glo reagent (included in the kit) was added into the reaction and the plate was further incubated for another 40 minutes to terminate the reaction and deplete the remaining ATP. Finally, 10 μl of the kinase detection reagent was added into each reaction to simultaneously convert ADP to ATP and allow the newly synthesized ATP to be measured by a plate-reading luminometer (Victor X5 2030 multilabel reader, PerkinElmer). IC50 value was calculated using appropriate programs in GraphPad Prism by plotting the logarithm of the concentration versus percent inhibition as compared with a vehicle (DMSO) control.

Sequence of Btk (Q06187 whole entry): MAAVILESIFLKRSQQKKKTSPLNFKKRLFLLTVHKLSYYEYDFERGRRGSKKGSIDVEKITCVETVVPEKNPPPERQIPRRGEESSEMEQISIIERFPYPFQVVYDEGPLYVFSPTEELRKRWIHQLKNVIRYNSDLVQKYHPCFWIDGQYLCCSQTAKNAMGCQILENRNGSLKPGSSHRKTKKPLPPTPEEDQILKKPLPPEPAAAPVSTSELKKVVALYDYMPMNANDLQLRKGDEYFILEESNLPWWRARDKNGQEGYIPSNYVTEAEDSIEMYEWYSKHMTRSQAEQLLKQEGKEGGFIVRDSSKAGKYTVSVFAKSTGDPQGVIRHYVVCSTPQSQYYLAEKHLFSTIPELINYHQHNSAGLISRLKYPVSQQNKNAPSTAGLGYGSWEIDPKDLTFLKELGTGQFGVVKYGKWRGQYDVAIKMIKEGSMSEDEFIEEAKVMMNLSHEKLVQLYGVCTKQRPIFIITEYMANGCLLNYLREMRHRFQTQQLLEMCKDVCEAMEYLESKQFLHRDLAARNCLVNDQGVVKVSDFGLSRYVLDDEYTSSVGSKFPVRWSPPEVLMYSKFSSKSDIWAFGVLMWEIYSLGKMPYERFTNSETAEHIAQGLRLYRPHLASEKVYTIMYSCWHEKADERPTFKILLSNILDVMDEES

`C=CC(=O)N1CCC[C@@H](n2c(Cl)c(-c3ccc(Oc4ccccc4F)cc3)c3c(N)n[nH]c(=O)c32)C1` [Example 83, (R)-1-(1-acryloylpiperidin-3-yl)-4-amino-2-chloro-3-(4-(2-fluorophenoxy)phenyl)-1H-pyrrolo[2,3-d]pyridazin-7(6H)-one] showed an IC50 of 1 to 100 µM.
`C=CC(=O)N1CC[C@@H](n2cc(-c3ccc(Oc4ccccc4F)cc3)c3c(N)n[nH]c(=O)c32)C1` [Example 106, (R)-1-(1-acryloylpyrrolidin-3-yl)-4-amino-3-(4-(2-fluorophenoxy)phenyl)-1H-pyrrolo[2,3-d]pyridazin-7(6H)-one] was tested, and the IC50 was 0.01 to 1 µM.
Compound `C=CC(=O)N1CCC[C@@H](n2cc(-c3ccc(Oc4ccccc4)c(F)c3)c3c(N)n[nH]c(=O)c32)C1` [Example 74, (R)-1-(1-acryloylpiperidin-3-yl)-4-amino-3-(3-fluoro-4-phenoxyphenyl)-1H-pyrrolo[2,3-d]pyridazin-7(6H)-one] has an IC50 of 0.01 to 1 µM.
`C=CC(=O)N1CC[C@H](n2cc(-c3ccc(Oc4ccccc4)cc3)c3c(N)n[nH]c(=O)c32)C1` [Example 3, 4-amino-3-(4-phenoxyphenyl)-1-[(3S)-1-prop-2-enoylpyrrolidin-3-yl]-6H-pyrrolo[2,3-d]pyridazin-7-one] was tested, and the IC50 was 0.01 to 1 µM.
In the case of `CN(C)C/C=C/C(=O)N1CCC[C@@H](n2cc(-c3ccc(Oc4c(F)cccc4Cl)cc3)c3c(N)n[nH]c(=O)c32)C1` [Example 79, 4-amino-3-[4-(2-chloro-6-fluoro-phenoxy)phenyl]-1-[(3R)-1-[(E)-4-(dimethylamino)but-2-enoyl]-3-piperidyl]-6H-pyrrolo[2,3-d]pyridazin-7-one], the IC50 is reported as at most 0.01 µM.
Compound `C=CC(=O)N1CCCC(n2cc(-c3ccc(OC)c(Cl)c3)c3c(N)n[nH]c(=O)c32)C1` (stereo not shown) [Example 53, 1-(1-acryloylpiperidin-3-yl)-4-amino-3-(3-chloro-4-methoxyphenyl)-1H-pyrrolo[2,3-d]pyridazin-7(6H)-one] has an IC50 of at most 0.01 µM.
Compound `N#CN1CCC[C@@H](n2cc(-c3ccc(Oc4ccccc4)c(F)c3)c3c(N)n[nH]c(=O)c32)C1` [Example 85, (R)-3-(4-amino-3-(3-fluoro-4-phenoxyphenyl)-7-oxo-6,7-dihydro-1H-pyrrolo[2,3-d]pyridazin-1-yl)piperidine-1-carbonitrile] has an IC50 of 0.01 to 1 µM.
`C=CC(=O)N1CCC[C@@H](n2c(F)c(-c3ccc(Oc4ccccc4)cc3)c3c(N)n[nH]c(=O)c32)C1` [Example 81, (R)-1-(1-acryloylpiperidin-3-yl)-4-amino-2-fluoro-3-(4-phenoxyphenyl)-1H-pyrrolo[2,3-d]pyridazin-7(6H)-one] was tested, and the IC50 was 0.01 to 1 µM.
`CN(C)C/C=C/C(=O)N1CCCC(n2cc(-c3ccc(Oc4cccc(Cl)c4)cc3)c3c(N)n[nH]c(=O)c32)C1` (stereo not shown) [Example 67, 4-amino-3-[4-(3-chlorophenoxy)phenyl]-1-[1-[(E)-4-(dimethylamino)but-2-enoyl]-3-piperidyl]-6H-pyrrolo[2,3-d]pyridazin-7-one] was tested, and the IC50 was at most 0.01 µM.
Work on `CC#CC(=O)N1CCCC(n2cc(-c3ccc(Oc4ccccc4)cc3)c3c(N)n[nH]c(=O)c32)C1` (stereo not shown) [Example 21, 4-amino-1-(1-(but-2-ynoyl)piperidin-3-yl)-3-(4-phenoxyphenyl)-1H-pyrrolo[2,3-d]pyridazin-7(6H)-one] yielded an IC50 of 1 to 100 µM.
In the case of `C=CC(=O)N1CCC[C@H]1Cn1cc(-c2ccc(Oc3ccccc3)cc2)c2c(N)n[nH]c(=O)c21` [Example 6, 4-amino-3-(4-phenoxyphenyl)-1-[[(2S)-1-prop-2-enoylpyrrolidin-2-yl]methyl]-6H-pyrrolo[2,3-d]pyridazin-7-one], the IC50 is reported as 0.01 to 1 µM.
Work on `CN(C/C=C/C(=O)N1CCC[C@@H](n2cc(-c3ccc(Oc4ccccc4)cc3)c3c(N)n[nH]c(=O)c32)C1)C(=O)OC(C)(C)C` [Example 17, tert-butyl N-[(E)-4-[(3R)-3-[4-amino-7-oxo-3-(4-phenoxyphenyl)-6H-pyrrolo[2,3-d]pyridazin-1-yl]-1-piperidyl]-4-oxo-but-2-enyl]-N-methyl-carbamate] yielded an IC50 of 0.01 to 1 µM.
For `C=CC(=O)N1CCC(Cn2cc(-c3ccc(Oc4ccccc4)cc3)c3c(N)n[nH]c(=O)c32)C1` (stereo not shown) [Example 8, 4-amino-3-(4-phenoxyphenyl)-1-[(1-prop-2-enoylpyrrolidin-3-yl)methyl]-6H-pyrrolo[2,3-d]pyridazin-7-one], the IC50 was 0.01 to 1 µM.
`CN(C)C/C=C/C(=O)N1CCC(n2cc(-c3ccc(Oc4ccccc4)cc3)c3c(N)n[nH]c(=O)c32)CC1` [Example 44, 4-amino-1-[1-[(E)-4-(dimethylamino)but-2-enoyl]-4-piperidyl]-3-(4-phenoxyphenyl)-6H-pyrrolo[2,3-d]pyridazin-7-one] was tested, and the IC50 was 0.01 to 1 µM.
`C=CC(=O)N1CCC(n2cc(-c3ccc(Oc4ccccc4)cc3)c3c(N)n[nH]c(=O)c32)CC1` [Example 9, 4-amino-3-(4-phenoxyphenyl)-1-(1-prop-2-enoyl-4-piperidyl)-6H-pyrrolo[2,3-d]pyridazin-7-one] was tested, and the IC50 was 1 to 100 µM.
With `CN(C)C/C=C/C(=O)N1CC[C@@H](n2cc(-c3ccc(Oc4ccccc4)cc3)c3c(N)n[nH]c(=O)c32)C1` [Example 39, 4-amino-1-[(3R)-1-[(E)-4-(dimethylamino)but-2-enoyl]pyrrolidin-3-yl]-3-(4-phenoxyphenyl)-6H-pyrrolo[2,3-d]pyridazin-7-one] the IC50 was at most 0.01 µM.
`CN(C)CC#CC(=O)N1CC[C@@H](n2cc(-c3ccc(Oc4ccccc4F)cc3)c3c(N)n[nH]c(=O)c32)C1` [Example 99, (R)-4-amino-1-(1-(4-(dimethylamino)but-2-ynoyl)pyrrolidin-3-yl)-3-(4-(2-fluorophenoxy)phenyl)-1H-pyrrolo[2,3-d]pyridazin-7(6H)-one] was tested, and the IC50 was at most 0.01 µM.
`COc1cc(-c2cn(C3CCCN(C(=O)/C=C/CN(C)C)C3)c3c(=O)[nH]nc(N)c23)ccc1Oc1cccc(Cl)c1` (stereo not shown) [Example 69, 4-amino-3-[4-(3-chlorophenoxy)-3-methoxy-phenyl]-1-[1-[(E)-4-(dimethylamino)but-2-enoyl]-3-piperidyl]-6H-pyrrolo[2,3-d]pyridazin-7-one] showed an IC50 of at most 0.01 µM.
With `N#CN1CCC[C@@H](n2cc(-c3ccc(Oc4ccccc4F)cc3)c3c(N)n[nH]c(=O)c32)C1` [Example 87, (R)-3-(4-amino-3-(4-(2-fluorophenoxy)phenyl)-7-oxo-6,7-dihydro-1H-pyrrolo[2,3-d]pyridazin-1-yl)piperidine-1-carbonitrile] the IC50 was at most 0.01 µM.
For `Nc1n[nH]c(=O)c2c1c(-c1ccc(Oc3ccccc3)cc1)cn2[C@@H]1CCCN(C(=O)/C=C/CN2CCC2)C1` [Example 33, 4-amino-1-[(3R)-1-[(E)-4-(azetidin-1-yl)but-2-enoyl]-3-piperidyl]-3-(4-phenoxyphenyl)-6H-pyrrolo[2,3-d]pyridazin-7-one], the IC50 was at most 0.01 µM.
With `Nc1n[nH]c(=O)c2c1c(-c1ccc(Oc3ccccc3)cc1)cn2[C@@H]1CCCN(C(=O)/C=C/CNC2CC2)C1` [Example 28, 4-amino-1-[(3R)-1-[(E)-4-(cyclopropylamino)but-2-enoyl]-3-piperidyl]-3-(4-phenoxyphenyl)-6H-pyrrolo[2,3-d]pyridazin-7-one] the IC50 was at most 0.01 µM.
`CN(C)C/C=C/C(=O)N1CCC[C@@H]1Cn1cc(-c2ccc(Oc3ccccc3)cc2)c2c(N)n[nH]c(=O)c21` [Example 42, 4-amino-1-[[(2R)-1-[(E)-4-(dimethylamino)but-2-enoyl]pyrrolidin-2-yl]methyl]-3-(4-phenoxyphenyl)-6H-pyrrolo[2,3-d]pyridazin-7-one] was tested, and the IC50 was 1 to 100 µM.
